# Experimental data from US6514540B1, “Therapeutic composition including plantain and aloe vera for treatment of arthritis and other afflictions” (priority 1999, dated 2003).
# Tested on: arthritic symptoms
# Assay: Clinical trials: topical application for arthritis symptoms
# Format: in vivo, human
# Settings: Subject No. 1, inflamed finger joint; injected locally and up to 80 mg orally over four to five months
# Procedure: In addition, the entire finger and part of the hand was affected by the pain and the swelling resulting in restricted use of the hand.
# The steroids were both injected locally and ingested in the form of up to 80 mg of prednazone, which was taken orally over a period of four to five months.
# During this period, the frequency of the application of the cream or lotion and heat gradually diminished to three times per day without a need for augmentation of the treatment with heat.
# Onset of these symptoms can result in a two- to three-fold increase in the size of a joint, with an inflammation of the surrounding tissue. This can occur in a matter of hours and affects the associated limb resulting in substantial pain, a loss of strength in the entire limb, sleep interruption (due to pain), and general malaise due to the intensity and continuous nature of the throbbing.
smiles,measurement,value
C[C@]12C=CC(=O)C=C1CC[C@@H]1[C@@H]2C(=O)C[C@@]2(C)[C@H]1CC[C@]2(O)C(=O)CO [prednazone],relief of pain and swelling by conventional steroid treatment,"some initial success in relieving both the pain and swelling, but upon elimination of the drug, the symptoms returned"
